Data on two compounds can be found in ChEMBL document CHEMBL1909622, “Identification of a novel RAMP-independent CGRP receptor antagonist” (Bioorg Med Chem Lett, 2011).

Series [1] is described as follows: Oral bioavailability in rat at 10 mg/kg. It counts as ADME, organism-based. The note with it: in vivo.
Series [2] in a line: Half life in rat at 2 mg/kg, iv. The arrangement: dose 2 mg/kg, route intravenous. The note with it: in vivo. The series is classed as ADME, organism-based.
Series [3] in a line: Clearance in rat at 2 mg/kg, iv and 10 mg/kg, po. The note with it: in vivo. It counts as ADME, organism-based.
A short description of series [4]: Volume of distribution at steady state in rat at 2 mg/kg, iv and 10 mg/kg, po. It counts as ADME, organism-based. Conditions: in vivo, read-out: Vdss.
Series [5] in a line: Oral bioavailability in dog at 1 mg/kg. The note with it: in vivo. It counts as ADME, organism-based, Canis lupus familiaris.
The nature of series [6]: Half life in dog at 0.5 mg/kg, iv. The series is classed as ADME, organism-based, Canis lupus familiaris. The arrangement: dose 0.5 mg/kg, route intravenous. Conditions: in vivo.
Series [7] in a line: Clearance in dog at 0.5 mg/kg, iv and 1 mg/kg, po. The series is classed as ADME, organism-based, Canis lupus familiaris. The note with it: in vivo.
Series [8] in a line: Volume of distribution at steady state in dog at 0.5 mg/kg, iv and 1 mg/kg, po. The series is classed as ADME, organism-based, Canis lupus familiaris. Conditions: in vivo, read-out: Vdss.
Series [9] deals with CGRP receptor (CALCRL/RAMP1) (Homo sapiens). The series is described as follows: Ratio Ki for CGRP receptor in human SK-N-MC cells in the absence of MgCl2 to Ki for CGRP receptor in human SK-N-MC cells in the presence of MgCl2.

Turning to `O=C(NCc1cc(F)cc(F)c1)c1nc(N2CCCCS2(=O)=O)cc(Br)c1O`, the bioavailability is 26% in series [1] and 13% in series [5]. The half-life in series [2] is 5.4 h; in [6], 7.1 h. Also, the clearance in series [3] was 1.1 mL/min/kg; in [7] it was 5.1 mL/min/kg. The values for the Vd in [4] and in series [8] were 0.4 L/kg and 3 L/kg, respectively.
Take `CC(C)C[C@H](NC(=O)CNC(=O)[C@H](C)NC(=O)[C@H](CC(C)C)NC(=O)[C@H](CCCNC(=N)N)NC(=O)[C@H](Cc1cnc[nH]1)NC(=O)[C@@H](NC(=O)[C@@H](NC(=O)[C@H](CS)NC(=O)[C@@H](NC(=O)[C@H](C)NC(=O)[C@@H](NC(=O)[C@H](CC(=O)O)NC(=O)[C@H](CS)NC(=O)[C@H](C)N)[C@@H](C)O)[C@@H](C)O)C(C)C)[C@@H](C)O)C(=O)N[C@@H](CC(C)C)C(=O)N[C@@H](CO)C(=O)N[C@@H](CCCNC(=N)N)C(=O)N[C@@H](CO)C(=O)NCC(=O)NCC(=O)N[C@H](C(=O)N[C@H](C(=O)N[C@@H](CCCCN)C(=O)N[C@@H](CC(N)=O)C(=O)N[C@@H](CC(N)=O)C(=O)N[C@@H](Cc1ccccc1)C(=O)N[C@H](C(=O)N1CCC[C@H]1C(=O)N[C@H](C(=O)N[C@@H](CC(N)=O)C(=O)N[C@H](C(=O)NCC(=O)N[C@@H](CO)C(=O)N[C@@H](CCCCN)C(=O)N[C@@H](C)C(=O)N[C@@H](Cc1ccccc1)C(N)=O)C(C)C)[C@@H](C)O)C(C)C)C(C)C)C(C)C`: the Ratio Ki in [9] was 1.

A word on the bioavailability: it is the share of a dose that reaches the circulation, judged against a reference dose that is usually intravenous. The half-life is the time in which the quantity being followed falls by half.
